Laboratory results as given in patent US20230099344A1, “COMPOUNDS AND METHODS FOR THE TARGETED DEGRADATION OF IRAK-4” (Arvinas Operations, Inc., priority 2021, published 2023).

Tests used:
Format in all cases: cell-based
[1] = molecular target: T1, IRAK-4 (Homo sapiens, UniProt Q9NWZ3); assay: IRAK-4 ELISA, OCI-Ly10 degradation; set-up: endogenous in cells; settings: treated overnight; for Dmax: OCI-Ly10, OCI-Ly10 cells; for DC50: OCI-Ly10 cells
T1 sequence (Q9NWZ3 1-460): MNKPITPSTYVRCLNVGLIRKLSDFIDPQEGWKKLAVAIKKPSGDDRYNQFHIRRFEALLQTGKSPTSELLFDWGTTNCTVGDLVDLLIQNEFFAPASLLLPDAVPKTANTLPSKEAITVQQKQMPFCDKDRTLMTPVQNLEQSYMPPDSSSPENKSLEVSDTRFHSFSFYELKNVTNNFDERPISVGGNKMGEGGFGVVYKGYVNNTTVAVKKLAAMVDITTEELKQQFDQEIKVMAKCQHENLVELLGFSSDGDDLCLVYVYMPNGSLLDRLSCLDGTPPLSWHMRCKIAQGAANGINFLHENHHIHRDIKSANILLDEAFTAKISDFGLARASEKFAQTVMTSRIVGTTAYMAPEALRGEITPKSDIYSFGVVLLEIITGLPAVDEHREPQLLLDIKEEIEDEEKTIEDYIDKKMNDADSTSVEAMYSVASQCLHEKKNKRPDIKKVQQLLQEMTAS
Method in brief: (§1)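 Readout: IRAK-4 protein level in cell lysate, sandwich ELISA. Cells: OCI-Ly10 at 1×10^6/ml or PBMC at 2×10^6/ml, compound added same day, overnight incubation.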

[2] = tested on: IL8; assay: IL-1β stimulated IL8 inhibition assay in PBMC; settings: human PBMCs, IL-1β stimulation, compound overnight, IL8 by MSD after 24 hrs; for IC50: read-out: IL1β stim IL8 inhibition IC50; for Emax: read-out: IL1β stim IL8 inhibition Ymax
Method in brief: (§2)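 Human PBMC at 2.0×10^6 cells/mL were pre-treated with compound overnight, then stimulated with IL-1β, LPS or R848, each at the donor-specific EC50 concentration. After 24 hrs, supernatant IL6 and/or IL8 was measured by MSD.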

[3] = tested on: IL6; assay: IL-1β stimulated IL6 inhibition assay in PBMC; settings: PBMC, human PBMCs, IL-1β stimulation, compound overnight, IL6 by MSD after 24 hrs; for IC50: Homo sapiens, 24 h, read-out: IL1β stim IL6 inhibition IC50; for Emax: read-out: IL1β stim IL6 inhibition Ymax
Method in brief: as §2

[4] = molecular target: T1, IRAK-4; assay: IRAK-4 ELISA, PBMC degradation; set-up: endogenous in cells; host or cells: PBMC; settings: treated overnight
Method in brief: as §1

O=C1CCC(N2Cc3cc(N4CC(CN5CCC(n6cc7cc(NC(=O)c8cnn9cccnc89)c(C8CC8)cc7n6)CC5)C4)ccc3C2=O)C(=O)N1 (centres unmarked) [Example 136]
Dmax [1]: 70 to 80%
DC50 [1]: < 10 nM
IC50 [2]: 50 to 100 nM
Emax [2]: 70 to 80%
IC50 [3]: < 10 nM
Emax [3]: ≥ 90%
DC50 [4]: < 1 nM
Dmax [4]: ≥ 90%
PBMC DC90 [4]: A (A represents a DC90 value <10.0 nM)

COc1cc2nn(C3CCN(CC4CCN(c5ccc6c(c5)CN(C5CCC(=O)NC5=O)C6=O)CC4)CC3)cc2cc1NC(=O)c1cnn2cccnc12 (centres unmarked) [Example 141]
Dmax [1]: 80 to 90%
DC50 [1]: < 10 nM
IC50 [2]: 10 to 50 nM
Emax [2]: 80 to 90%
IC50 [3]: < 10 nM
Emax [3]: ≥ 90%
DC50 [4]: 1 to 5 nM
Dmax [4]: 80 to 90%
PBMC DC90 [4]: B (B represents a DC90 value ≥10.0 nM and <25.0 nM)

COc1cc2nn(C3CCN(CC4CN(c5ccc6c(c5)CN(C5CCC(=O)NC5=O)C6=O)C4)CC3)cc2cc1NC(=O)c1cnn2cccnc12 (centres unmarked) [Example 142]
Dmax [1]: 70 to 80%
DC50 [1]: < 10 nM
IC50 [2]: 10 to 50 nM
Emax [2]: < 70%
IC50 [3]: < 10 nM
Emax [3]: ≥ 90%
DC50 [4]: < 1 nM
Dmax [4]: 80 to 90%
PBMC DC90 [4]: A (A represents a DC90 value <10.0 nM)

COc1cc2nn(C3CCN(CCc4ccc5c(c4)CN(C4CCC(=O)NC4=O)C5=O)CC3)cc2cc1NC(=O)c1cnn2cccnc12 (centres unmarked) [Example 143]
Dmax [1]: ≥ 90%
DC50 [1]: < 10 nM
IC50 [2]: < 10 nM
Emax [2]: 70 to 80%
IC50 [3]: < 10 nM
Emax [3]: ≥ 90%
DC50 [4]: 1 to 5 nM
Dmax [4]: ≥ 90%
PBMC DC90 [4]: C (C represents a DC90 value ≥25.0 nM and <50 nM)

O=C1CCC(N2C(=O)c3ccc(N4CC(CN5CCC([C@H](F)Cn6cc7cc(NC(=O)c8cnn9cccnc89)c(OCC8CC8)cc7n6)CC5)C4)cc3C2=O)C(=O)N1 (some centres unmarked) [Example 173]
Dmax [1]: ≥ 90%
DC50 [1]: < 10 nM
IC50 [2]: 10 to 50 nM
Emax [2]: < 70%
IC50 [3]: 10 to 50 nM
Emax [3]: ≥ 90%
DC50 [4]: < 1 nM
Dmax [4]: ≥ 90%
PBMC DC90 [4]: A (A represents a DC90 value <10.0 nM)

O=C1CCC(N2C(=O)c3ccc(N4CCC(CN5CCC([C@H](F)Cn6cc7cc(NC(=O)c8cnn9cccnc89)c(OCC8CC8)cc7n6)CC5)CC4)cc3C2=O)C(=O)N1 (some centres unmarked) [Example 182]
Dmax [1]: ≥ 90%
DC50 [1]: < 10 nM
IC50 [2]: < 10 nM
Emax [2]: < 70%
IC50 [3]: < 10 nM
Emax [3]: 80 to 90%
DC50 [4]: < 1 nM
Dmax [4]: ≥ 90%
PBMC DC90 [4]: A (A represents a DC90 value <10.0 nM)

O=C1CCC(N2C(=O)c3ccc(N4CCC(CN5CC[C@H](n6cc7cc(NC(=O)c8cnn9cccnc89)c(OCC8CC8)cc7n6)[C@@H](F)C5)CC4)cc3C2=O)C(=O)N1 (some centres unmarked) [Example 184]
Dmax [1]: < 70%
DC50 [1]: < 10 nM
IC50 [2]: 10 to 50 nM
Emax [2]: < 70%
IC50 [3]: 10 to 50 nM
Emax [3]: 80 to 90%
DC50 [4]: 1 to 5 nM
Dmax [4]: 80 to 90%
PBMC DC90 [4]: C (C represents a DC90 value ≥25.0 nM and <50 nM)

COc1cc2nn(C3CCN(CC4CN(c5ccc6c(c5)C(=O)N(C5CCC(=O)NC5=O)C6=O)C4)CC3)cc2cc1NC(=O)c1cnn2cccnc12 (centres unmarked) [Example 202]
Dmax [1]: ≥ 90%
DC50 [1]: < 10 nM
IC50 [2]: ≥ 100 nM
IC50 [3]: 10 to 50 nM
Emax [3]: 80 to 90%
DC50 [4]: < 1 nM
Dmax [4]: ≥ 90%
PBMC DC90 [4]: A (A represents a DC90 value <10.0 nM)

COc1cc2nn(C3CCN(CC4(F)CN(c5ccc6c(c5)C(=O)N(C5CCC(=O)NC5=O)C6=O)C4)CC3)cc2cc1NC(=O)c1cnn2cccnc12 (centres unmarked) [Example 207]
Dmax [1]: ≥ 90%
DC50 [1]: < 10 nM
IC50 [2]: 50 to 100 nM
Emax [2]: < 70%
IC50 [3]: 10 to 50 nM
Emax [3]: ≥ 90%
DC50 [4]: 1 to 5 nM
Dmax [4]: ≥ 90%
PBMC DC90 [4]: B (B represents a DC90 value ≥10.0 nM and <25.0 nM)

COc1cc2nn([C@H]3CC[C@H](OC4CN(c5ccc6c(c5)C(=O)N(C5CCC(=O)NC5=O)C6=O)C4)CC3)cc2cc1NC(=O)c1cnn2cccnc12 (some centres unmarked) [Example 212]
Dmax [1]: ≥ 90%
DC50 [1]: < 10 nM
IC50 [2]: 50 to 100 nM
Emax [2]: < 70%
IC50 [3]: 10 to 50 nM
Emax [3]: 80 to 90%
DC50 [4]: < 1 nM
Dmax [4]: ≥ 90%
PBMC DC90 [4]: A (A represents a DC90 value <10.0 nM)

COc1cc2nn(C3CCN(CC4(F)CN(c5ccc6c(c5)CN(C5CCC(=O)NC5=O)C6=O)C4)CC3)cc2cc1NC(=O)c1cnn2cccnc12 (centres unmarked) [Example 274]
Dmax [1]: < 70%
DC50 [1]: < 10 nM
IC50 [2]: 50 to 100 nM
Emax [2]: 70 to 80%
IC50 [3]: 10 to 50 nM
Emax [3]: ≥ 90%
DC50 [4]: < 1 nM
Dmax [4]: 80 to 90%
PBMC DC90 [4]: A (A represents a DC90 value <10.0 nM)

O=C1CCC(N2Cc3cc(N4CCC(F)(CN5CCC(n6cc7cc(NC(=O)c8cnn9cccnc89)c(OCC8CC8)cc7n6)CC5)CC4)ccc3C2=O)C(=O)N1 (centres unmarked) [Example 278]
Dmax [1]: 80 to 90%
DC50 [1]: < 10 nM
IC50 [2]: 10 to 50 nM
Emax [2]: ≥ 90%
IC50 [3]: 10 to 50 nM
Emax [3]: ≥ 90%
DC50 [4]: < 1 nM
Dmax [4]: 80 to 90%
PBMC DC90 [4]: A (A represents a DC90 value <10.0 nM)

O=C1CCC(N2Cc3cc(N4CC(F)(CN5CCC(n6cc7cc(NC(=O)c8cnn9cccnc89)c(OCC8CC8)cc7n6)CC5)C4)ccc3C2=O)C(=O)N1 (centres unmarked) [Example 279]
Dmax [1]: 70 to 80%
DC50 [1]: < 10 nM
IC50 [2]: ≥ 100 nM
Emax [2]: 80 to 90%
IC50 [3]: 10 to 50 nM
Emax [3]: ≥ 90%
DC50 [4]: < 1 nM
Dmax [4]: ≥ 90%
PBMC DC90 [4]: A (A represents a DC90 value <10.0 nM)

CC(C)Oc1cc2c(cc1NC(=O)c1cnn3cccnc13)CN(C1CCN(C3CCN(c4ccc5c(c4)CN(C4CCC(=O)NC4=O)C5=O)CC3)CC1)C2=O (centres unmarked) [Example 282]
Dmax [1]: ≥ 90%
DC50 [1]: < 10 nM
IC50 [2]: 10 to 50 nM
Emax [2]: < 70%
IC50 [3]: < 10 nM
Emax [3]: ≥ 90%
DC50 [4]: < 1 nM
Dmax [4]: ≥ 90%
PBMC DC90 [4]: A (A represents a DC90 value <10.0 nM)

COc1c(N2CC(CN3CCC(n4cc5cc(NC(=O)c6cnn7cccnc67)c(OCC6CC6)cc5n4)CC3)C2)ccc2c1C(=O)N(C1CCC(=O)NC1=O)C2=O (centres unmarked) [Example 285, N-(6-(cyclopropylmethoxy)-2-(1-((1-(2-(2,6-dioxopiperidin-3-yl)-4-methoxy-1,3-dioxoisoindolin-5-yl)azetidin-3-yl)methyl)piperidin-4-yl)-2H-indazol-5-yl)pyrazolo[1,5-a]pyrimidine-3-carboxamide]
Dmax [1]: ≥ 90%
DC50 [1]: < 10 nM
IC50 [2]: 10 to 50 nM
Emax [2]: < 70%
IC50 [3]: < 10 nM
Emax [3]: 80 to 90%
DC50 [4]: 1 to 5 nM
Dmax [4]: 80 to 90%
PBMC DC90 [4]: A (A represents a DC90 value <10.0 nM)
